From paper PMC2566858 (Nucleic Acids Research, 2008) come the findings set out here.

In one experiment the target is rGyr_fl (Thermotoga maritima, UniProt O51934, K106Q/Y851F). As to the kind of experiment: biochemical.
Experiment [1] deals with rGyr_hel (Thermotoga maritima, UniProt O51934, K106Q). Kind of experiment: biochemical.
Experiment [2] has as its target T1, rGyr_hel (Thermotoga maritima, UniProt O51934).
T1 sequence (O51934 59-541): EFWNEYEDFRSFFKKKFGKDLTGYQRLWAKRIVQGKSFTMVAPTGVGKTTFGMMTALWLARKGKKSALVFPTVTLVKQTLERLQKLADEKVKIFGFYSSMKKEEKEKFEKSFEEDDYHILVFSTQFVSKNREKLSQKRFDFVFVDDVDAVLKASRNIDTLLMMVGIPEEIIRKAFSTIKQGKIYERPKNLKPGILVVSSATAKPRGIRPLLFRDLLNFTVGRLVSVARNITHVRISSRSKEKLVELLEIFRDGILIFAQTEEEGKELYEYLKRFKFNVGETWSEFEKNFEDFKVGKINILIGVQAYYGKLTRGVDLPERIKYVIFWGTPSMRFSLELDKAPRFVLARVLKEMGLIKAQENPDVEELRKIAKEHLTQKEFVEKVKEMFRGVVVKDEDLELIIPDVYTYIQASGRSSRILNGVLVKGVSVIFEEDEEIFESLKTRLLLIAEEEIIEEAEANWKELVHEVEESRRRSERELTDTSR
As to the kind of experiment: fluorescence equilibrium titration. The format is binding.

Chain of rGyr_fl (O51934 whole entry K106Q/Y851F): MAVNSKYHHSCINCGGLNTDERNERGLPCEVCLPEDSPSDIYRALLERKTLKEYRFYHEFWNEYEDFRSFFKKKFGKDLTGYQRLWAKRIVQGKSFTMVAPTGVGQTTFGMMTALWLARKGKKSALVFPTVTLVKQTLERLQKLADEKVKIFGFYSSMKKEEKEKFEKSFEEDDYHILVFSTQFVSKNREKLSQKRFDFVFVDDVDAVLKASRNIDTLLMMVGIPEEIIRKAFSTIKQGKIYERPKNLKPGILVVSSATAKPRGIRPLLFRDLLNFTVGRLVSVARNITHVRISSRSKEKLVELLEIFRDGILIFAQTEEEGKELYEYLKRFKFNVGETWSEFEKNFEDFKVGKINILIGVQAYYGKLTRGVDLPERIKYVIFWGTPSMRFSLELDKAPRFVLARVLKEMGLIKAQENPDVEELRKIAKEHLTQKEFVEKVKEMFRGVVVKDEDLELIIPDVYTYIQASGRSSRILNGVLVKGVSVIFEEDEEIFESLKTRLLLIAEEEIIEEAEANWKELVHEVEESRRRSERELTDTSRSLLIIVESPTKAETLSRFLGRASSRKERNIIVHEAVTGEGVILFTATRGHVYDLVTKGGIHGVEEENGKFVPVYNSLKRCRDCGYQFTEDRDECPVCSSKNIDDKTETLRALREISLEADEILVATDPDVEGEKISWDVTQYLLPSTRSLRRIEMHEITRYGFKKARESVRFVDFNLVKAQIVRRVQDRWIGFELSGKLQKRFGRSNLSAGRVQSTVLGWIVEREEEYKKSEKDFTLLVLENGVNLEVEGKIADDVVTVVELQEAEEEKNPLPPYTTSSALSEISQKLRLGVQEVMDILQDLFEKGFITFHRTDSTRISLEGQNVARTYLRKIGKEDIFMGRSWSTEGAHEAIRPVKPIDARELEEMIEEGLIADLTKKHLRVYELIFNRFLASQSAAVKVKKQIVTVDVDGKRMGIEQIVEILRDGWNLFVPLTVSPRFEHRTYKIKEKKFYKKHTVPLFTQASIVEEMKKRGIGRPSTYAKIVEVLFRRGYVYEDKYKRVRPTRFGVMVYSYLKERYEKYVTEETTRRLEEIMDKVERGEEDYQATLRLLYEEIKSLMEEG
Chain of rGyr_hel (Thermotoga maritima, UniProt O51934, K106Q) (O51934 59-541 K106Q): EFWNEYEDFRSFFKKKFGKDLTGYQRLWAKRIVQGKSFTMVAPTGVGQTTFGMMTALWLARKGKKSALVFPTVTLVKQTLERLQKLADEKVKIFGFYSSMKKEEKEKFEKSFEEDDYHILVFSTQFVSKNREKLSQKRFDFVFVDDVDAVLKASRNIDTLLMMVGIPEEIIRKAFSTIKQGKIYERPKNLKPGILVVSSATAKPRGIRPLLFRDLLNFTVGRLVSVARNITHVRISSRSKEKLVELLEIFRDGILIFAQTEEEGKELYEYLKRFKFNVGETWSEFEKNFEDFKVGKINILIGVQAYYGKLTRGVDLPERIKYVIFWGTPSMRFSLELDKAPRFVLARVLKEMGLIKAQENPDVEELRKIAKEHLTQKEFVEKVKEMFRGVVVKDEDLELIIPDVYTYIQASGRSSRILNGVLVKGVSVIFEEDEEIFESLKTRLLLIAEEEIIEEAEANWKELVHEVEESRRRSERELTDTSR

For `Nc1ncnc2c1ncn2[C@@H]1O[C@H](COP(=O)(O)OP(=O)(O)OP(=O)(O)O)[C@@H](O)[C@H]1O` [ATP], the Kd on rGyr_fl came out at 98 ± 12 µM; at rGyr_hel [1], 570 ± 300 µM. As for `Nc1ncnc2c1ncn2[C@@H]1O[C@H](COP(=O)(O)OP(=O)(O)O)[C@@H](O)[C@H]1O` [ADP], the Kd at rGyr_fl is 36 ± 5 µM; on rGyr_hel [1], 150 ± 85 µM. With `Nc1ncnc2c1ncn2[C@@H]1O[C@H](COP(=O)(O)O)[C@@H](O)[C@H]1O` [AMP], binding at rGyr_hel [2] was characterised by a dissociation constant (Kd) of 1600 ± 231 µM.

By Kd is commonly meant the free concentration of one partner at which half of the binding sites on the other are occupied at equilibrium, for simple one-to-one binding. Low readings indicate tighter binding, high ones weaker binding.
